Measurements published in patent US20250281449A1, “NITROGEN-CONTAINING ANALOGS OF SALINOMYCIN FOR USE IN MULTIPLE MYELOMA (MM)” (Centre National de la Recherche Scientifique, priority 2021, published 2025).

Legend:
primary MM cells = assay: Assay on primary MM cells of patients (flow cytometry); assay type: cell-based, human; settings: n=5, with IL-6
Method: (§1) Primary MM cells were treated with Ironomycin (A) or AM-23 (B) and incubated during 96H with IL-6. The toxicity on MM cells and non-MM cells was analyzed by flow cytometry and expressed in % of control.
(§2) Bone marrow samples were collected after patients' written informed consent in accordance with the Declaration of Helsinki and institutional research board approval from Montpellier University hospital. Cells are obtained from […] of 5 patients with MM. Cells are obtained by density gradient separation and qualified by Flow cytometry.
(§3) Cells are cultured in Gibco® RPMI-1640 (Glutamax) medium (#6187-010) with 10% FBS at a density of 0.5×10^6 Cell/mL with 2 ng/mL of interleukin-6. Cells are seeded 24H after thawing and treated with various compounds during 72H.
(§4) Total cells were counted with trypan blue and stained with the panel CD38-APC, CD138-PE (Beckman coulter) and analyzed by flow cytometry (Fortessa cytometer, BD Pharmigen). Tumorous MM cells were gated on CD38+ and CD138+.

MM cell lines = assay: Cell growth inhibition in panel of MM cell lines; assay type: cell-based, human; settings: 96H
Method: (§5) The panel of 17 HMCL cell lines were incubated with increasing concentrations of Ironomycin (A), AM23 (B) or vehicle for 96H.
(§6) HMCL cell lines were cultured for 4 days in 96-well flat-bottom microtiter plates in RPMI 1640 medium or DMEM medium, 10% or 20% FCS (control medium) in the presence of various compounds. The number of viable cells in culture was determined using the Cell Titer-Glo Luminescent Cell Viability Assay from Promega, Madison, WI, USA using a Centro LB 960 luminometer (Berthold Technologies, Bad Wildbad, Germany).
(§7) This test is based on quantitation of the intracellular ATP present, which signals the presence of metabolically active cells. Data are expressed as the mean percentage of six replicates, normalized to the untreated control.
The therapeutic interest of iron metabolism inhibitors AM5 (Ironomycin) and AM23 was further investigated using large collection of 18 MM cell lines (Moreaux J et al. Haematologica 2011; Vikova V et al. Theranostics 2019). The IC50 of Ironomycin and AM23 respectively are illustrated in the Table 5 hereunder: […]

non-MM cells = assay: Assay on primary samples of patients, non-MM cells (flow cytometry); assay type: cell-based, human; settings: primary samples of patients, n=5
Method: as §1, §2, §3, §4

XG12 = assay: Cell viability assay (Cell Titer-Glo), HMCL; assay type: cell-based; settings: Homo sapiens, 96 h
Method: as §5, §6, §7

OPM-2 = assay: Cell viability assay (Cell Titer-Glo), HMCL; assay type: cell-based; settings: Homo sapiens, OPM-2, 96 h
Method: as §5, §6, §7

XG28 = assay: Cell viability assay (Cell Titer-Glo), HMCL; assay type: cell-based; settings: Homo sapiens, 96 h
Method: as §5, §6, §7

MOLP-8 = assay: Cell viability assay (Cell Titer-Glo), HMCL; assay type: cell-based; settings: Homo sapiens, MOLP-8, 96 h
Method: as §5, §6, §7

XG6 = assay: Cell viability assay (Cell Titer-Glo), HMCL; assay type: cell-based; settings: Homo sapiens, XG6, 96 h
Method: as §5, §6, §7

XG20 = assay: Cell viability assay (Cell Titer-Glo), HMCL; assay type: cell-based; settings: Homo sapiens, 96 h
Method: as §5, §6, §7

XG24 = assay: Cell viability assay (Cell Titer-Glo), HMCL; assay type: cell-based; settings: Homo sapiens, 96 h
Method: as §5, §6, §7

XG21 = assay: Cell viability assay (Cell Titer-Glo), HMCL; assay type: cell-based; settings: Homo sapiens, 96 h
Method: as §5, §6, §7

XG-7 = assay: Cell viability assay (Cell Titer-Glo), HMCL; assay type: cell-based; settings: Homo sapiens, 96 h
Method: as §5, §6, §7

XG-1 = assay: Cell viability assay (Cell Titer-Glo), HMCL; assay type: cell-based; settings: Homo sapiens, 96 h
Method: as §5, §6, §7

SMILES: CC[C@@H](C(=O)[C@@H](C)[C@@H](O)[C@H](C)[C@@H]1O[C@@H]([C@@H](CC)C(=O)O)CC[C@@H]1C)[C@H]1O[C@]2(C=C[C@@H](NC3CC3)[C@]3(CC[C@@](C)([C@H]4CC[C@](O)(CC)[C@H](C)O4)O3)O2)[C@H](C)C[C@@H]1C [AM23]
- toxicity on primary MM cells of patients (primary MM cells): validated the therapeutic interest
- cell growth inhibition / toxicity on MM cell lines (MM cell lines): validated the toxicity
- cell growth inhibition / toxicity on MM cell lines (MM cell lines; listed as AM-23): kill MM cells with nanomolar concentration
- toxicity for non-tumoral cells (non-MM cells): without significant toxicity
- IC50 (XG12): 0.8 nM
- IC50 (OPM-2): 1.4 nM
- IC50 (XG28): 13 nM
- IC50 (MOLP-8): 13 nM
- IC50 (XG6): 3.8 nM
- IC50 (XG20): 154 nM
- IC50 (XG24): 8.8 nM
- IC50 (XG21): 34.3 nM
- IC50 (XG-7): 11.8 nM
- IC50 (XG-1): 21.1 nM
